# Biological target: His-tagged CRBN (Homo sapiens, UniProt Q96SW2)
# Experiment: AlphaLISA assay with biotinylated pomalidomide and His-tagged CRBN
# Format: binding
# Conditions: competition with biotinylated pomalidomide
# Protocol: To determine whether JQAD1 interacts with the E3 ligase receptor CRBN, the AlphaLISA® platform was used to perform AlphaLISA® fluorescent assays using biotinylated pomalidomide bound to beads and His-tagged CRBN (Yasgar et al. Methods Mol. Biol. 1439:77-98 (2016)). […] Next, biotinylated JQAD1 (Biotin-JQAD1, Scheme 2) was synthesized and incubated with Kelly cell lysates, followed by streptavidin-based purification. […] PROTAC®s may acquire preferential specificity for one of two possible target enzymes due to restricted three-dimensional interactions, as noted in Burslem and Crews, Cell 181:102-14 (2020).
# Assays were performed with minimal modifications from the manufacturer's protocol (PerkinElmer®, USA). Briefly, a 2× solution of components with final concentrations of CRBN-DDB1 at 50 nM, Ni-coated Acceptor Beads at 20 μg/ml, and 15 nM biotinylated-pomalidomide were added in […] to 384-well plates (AlphaPlate-384, PerkinElmer®, USA). 100 nL of compound in DMSO from stock plates were added by pin transfer using a Janus Workstation (PerkinElmer®, USA). Streptavidin-coated donor beads (20 μg/ml final) were added to the solution, followed by incubation at room temperature for 1 hour, and reading on an Envision 2104 (PerkinElmer®, USA), by the manufacturer's protocol.
# Chain of His-tagged CRBN (Q96SW2 whole entry): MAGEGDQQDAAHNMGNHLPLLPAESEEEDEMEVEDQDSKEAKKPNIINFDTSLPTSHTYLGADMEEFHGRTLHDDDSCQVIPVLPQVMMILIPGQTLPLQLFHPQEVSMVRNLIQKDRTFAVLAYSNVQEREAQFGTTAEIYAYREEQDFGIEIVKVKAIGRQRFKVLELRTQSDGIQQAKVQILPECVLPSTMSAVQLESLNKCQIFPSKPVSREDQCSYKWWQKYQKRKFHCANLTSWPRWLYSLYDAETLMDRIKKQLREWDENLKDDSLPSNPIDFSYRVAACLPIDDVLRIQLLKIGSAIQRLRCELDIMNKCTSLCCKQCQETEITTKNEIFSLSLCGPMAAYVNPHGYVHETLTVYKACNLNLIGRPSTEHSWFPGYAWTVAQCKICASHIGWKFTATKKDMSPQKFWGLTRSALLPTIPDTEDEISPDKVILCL
# Chain of His-tagged CRBN (Q16531 whole entry partner): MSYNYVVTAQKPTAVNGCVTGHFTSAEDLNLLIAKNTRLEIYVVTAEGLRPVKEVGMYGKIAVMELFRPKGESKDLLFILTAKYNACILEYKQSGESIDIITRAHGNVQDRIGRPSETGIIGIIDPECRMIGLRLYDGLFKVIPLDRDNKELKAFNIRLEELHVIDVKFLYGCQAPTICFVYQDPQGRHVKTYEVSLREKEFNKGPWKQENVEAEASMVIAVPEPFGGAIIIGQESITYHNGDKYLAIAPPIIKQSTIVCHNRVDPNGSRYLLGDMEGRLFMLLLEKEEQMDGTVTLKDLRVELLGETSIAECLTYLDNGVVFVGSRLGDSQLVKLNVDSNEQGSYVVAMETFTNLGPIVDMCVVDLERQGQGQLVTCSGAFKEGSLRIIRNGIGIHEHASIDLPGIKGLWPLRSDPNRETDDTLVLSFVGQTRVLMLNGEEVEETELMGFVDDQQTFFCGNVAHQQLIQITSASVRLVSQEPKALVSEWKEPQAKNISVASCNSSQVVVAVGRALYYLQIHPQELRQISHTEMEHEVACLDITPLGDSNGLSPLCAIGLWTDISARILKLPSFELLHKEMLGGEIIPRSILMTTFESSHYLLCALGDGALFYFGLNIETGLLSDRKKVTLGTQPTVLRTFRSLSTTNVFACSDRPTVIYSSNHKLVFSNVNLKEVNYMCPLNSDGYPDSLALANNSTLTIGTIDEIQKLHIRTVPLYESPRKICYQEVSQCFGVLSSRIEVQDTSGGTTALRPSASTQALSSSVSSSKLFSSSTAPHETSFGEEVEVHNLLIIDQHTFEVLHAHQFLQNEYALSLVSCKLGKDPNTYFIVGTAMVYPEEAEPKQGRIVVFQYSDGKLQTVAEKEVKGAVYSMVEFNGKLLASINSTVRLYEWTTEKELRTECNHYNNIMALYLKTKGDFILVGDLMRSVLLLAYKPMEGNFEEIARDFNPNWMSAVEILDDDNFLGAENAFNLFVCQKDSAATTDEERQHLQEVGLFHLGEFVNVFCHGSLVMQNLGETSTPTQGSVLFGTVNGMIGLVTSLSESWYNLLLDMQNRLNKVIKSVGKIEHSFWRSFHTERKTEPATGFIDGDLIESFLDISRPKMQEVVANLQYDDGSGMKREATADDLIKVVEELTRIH
compound,measurement,value
"C[C@H](N(Cc1ccc(F)cc1)C(=O)CN1C(=O)O[C@@]2(CCc3cc(NC(=O)CCCCCCCCCCCNc4ccc5c(c4)C(=O)N(C4CCC(=O)NC4=O)C5=O)ccc32)C1=O)C(F)(F)F (stereo partly drawn) [JQAD1, 12-((2-(2,6-dioxopiperidin-3-yl)-1,3-dioxoisoindolin-5-yl)amino)-N-((R)-3′-(2-((4-fluorobenzyl)((S)-1,1,1-trifluoropropan-2-yl)amino)-2-oxoethyl)-2′,4′-dioxo-2,3-dihydrospiro[indene-1,5′-oxazolidin]-5-yl)dodecanamide]",interaction with CRBN,efficiently interacted with CRBN
